In patent publication US8993603B2, “Pharmaceutical composition and method using antifungal agent in combination” (Toyama Chemical Co., Ltd., priority 2005, dated 2015):

Key:
[1] = tested on: Aspergillus fumigatus TIMM0063; assay: Mouse systemic infection model using Aspergillus fumigatus; assay type: in vivo; conditions: ICR mice, 15 days after infection, test compound 0.1 mg/kg s.c., once a day, 7 times
Method: In vivo activity was evaluated employing a mouse systemic infection model using Aspergillus fumigatus.
As for the inoculum, mice (four-week old (at infection) male ICR mice, 10 mice per group) were intraperitoneally administered with cyclophosphamide 4 days prior to infection (200 mg/kg) and the day after infection (100 mg/kg). A conidium suspension of Aspergillus fumigatus TIMM0063 was diluted with sterile physiological saline solution containing 0.05% Tween 80 (manufactured by Difco Laboratories) to prepare an inoculum. The mice were intravenously inoculated in their tails with 0.2 mL of the inoculum to induce infection (approximately 4×10^4 CFU/mouse).
(§1) The test compound was dissolved in a small amount of 0.1 mol/L hydrochloric acid, and the resultant solution was diluted with sterile physiological saline solution.
Voriconazole was dissolved in 50 mg/mL aqueous sulfobutyl ether β-cyclodextrin sodium (SIDIX) solution.
Flucytosine was suspended in 0.5% methyl cellulose solution.
(§2) The test compound (0.1 mg/kg) and voriconazole (5 mg/kg) were subcutaneously administered and flucytosine (50 mg/kg) was orally administered 2 hours after infection and then once a day for 6 days for a total of 7 times. The test was carried out for the case where each of the agents was administered singly and in combination by administering each of the agents immediately after the test compound had been administered. Efficacy in the susceptibility test was evaluated by the survival rate 15 days after infection.

[2] = tested on: Cryptococcus neoformans ATCC90112; assay: Mouse systemic infection model using Cryptococcus neoformans; assay type: in vivo; conditions: ICR mice, 22 days after infection, test compound 0.125 mg/kg s.c., once a day, 7 times
Method: In vivo activity was evaluated employing a mouse systemic infection model using Cryptococcus neoformans.
Mice (four-week old (at infection) male ICR mice, 10 mice per group) were intraperitoneally administered with cyclophosphamide 4 days prior to infection (200 mg/kg) and the day after infection (100 mg/kg). An inoculum was prepared by suspending in sterile physiological saline solution Cryptococcus neoformans ATCC90112 on a SDA flat plate that had been cultured for one night at 35° C., counting the number of cells using a biological microscope, and then diluting with sterile physiological saline solution. The mice were intravenously inoculated in their tails with 0.2 mL of the inoculum to induce infection (approximately 8×10^4 CFU/mouse).
as §1
Fluconazole was prepared using sterile physiological saline solution.
Amphotericin B was dissolved in a 5% aqueous glucose solution.
as §2, with “(0.125 mg/kg), fluconazole (5” for “(0.1”, “amphotericin B (0.25” for “voriconazole (5”, “subcutaneously” for “subcutaneously administered and flucytosine (50 mg/kg) was orally”, “days” for “days for”, “where the” for “where”, “22” for “15”

[3] = Table 5, flucytosine 50 mg/kg orally
[4] = Table 7, amphotericin B 0.25 mg/kg s.c.
[5] = Table 6, fluconazole 5 mg/kg s.c.
[6] = Table 4, voriconazole 5 mg/kg s.c.

| SMILES | Survival rate (%) [1, 3] [%] | Survival rate (%) [2, 4] [%] | Survival rate (%) [2, 5] [%] | Survival rate (%) [1, 6] [%] |
| --- | --- | --- | --- | --- |
| Nc1[nH]c(=O)ncc1F [5-FC, flucytosine] | 10 | – | – | – |
| C[C@@H]1[C@H](O)[C@@H](C)/C=C/C=C/C=C/C=C/C=C/C=C/C=C/[C@H](O[C@@H]2O[C@H](C)[C@@H](O)[C@H](N)[C@@H]2O)C[C@@H]2O[C@](O)(C[C@@H](O)C[C@@H](O)[C@H](O)CC[C@@H](O)C[C@@H](O)CC(=O)O[C@H]1C)C[C@H](O)[C@H]2C(=O)O [AMPH-B, amphotericin B] | – | 20 | – | – |
| OC(Cn1cncn1)(Cn1cncn1)c1ccc(F)cc1F [FLCZ, fluconazole] | – | – | 10 | – |
| N=C(N)c1ccc(OCCCC2CCN(CCCOc3ccc(C(=N)N)cc3)CC2)cc1 [Test Compound] | 10 | 0 | 20 | 10 |
| C[C@@H](c1ncncc1F)[C@](O)(Cn1cncn1)c1ccc(F)cc1F [VLCZ, voriconazole] | – | – | – | 10 |
